Experimental findings from patent publication US20030031690A1, “Cosmetic composition for preventing and treating acnes containing cryptotanshinone” (priority 2001, published 2003) are described below.

Converted amounts (≈) assume the structure as drawn.

One test deals with ears of mice. The test is described as follows: Anti-inflammation effect, arachidonic acid-induced ear edema. Format: in vivo. As to conditions: for Thickness of ear After applying agent / Thickness of ear Before applying agent: agent 0.3% in ethanol once a day for four days, average of 7 mice; for Thickness of ear After applying agent: 2 mg/ear arachidonic acid, one hour after; for Restraint rate: agent 0.3% in ethanol, (A − B)/A × 100 against comparative group. The procedure:
When inflammation is generated due to P. acnes, become more serious. Accordingly, the effect of alleviating the inflammation due to acne is verified by assessing the anti-inflammatory effect of cryptotanshinone. The experiment is conducted by a method using arachidonic acid (A. Crummey, G. P. Harper, E. A. Boyle and F. R. Mangan. Inhibition of arachidonic acid-induced ear oedema as a model for assessing topical anti-inflammatory compound. Agents and Actions 1987; 20:69-76).
After washing both ears of mice with ethanol before applying the agent, 201 o f cryptotanshinone having a concentration of 0.3% is applied to the ears of mice belonging to an agent application group once a day for four days, while 201 o f ethanol is applied to mice in a comparative group. One hour after the last application, ethanol is applied to the left ears of mice and 2 mg/ear of arachidonic acid is applied to the right ears of mice. One hour after that, the degree of ear edema is repeatedly measured by micrometer three times for each ear. The left ears of mice in the agent application group are used as a comparative group for measuring the degree of inflammation being induced by the agent.
The anti-inflammatory effect is assessed by the degree that the edema in the agent application group is restrained by cryptotanshinone on the basis of the comparative group to which arachidonic acid is applied. The number of mice used for each group is seven and the value is an average of those of 7 mice.
The experiments are conducted in the same manner as experimental example 6, except for respectively using stearyl glycyrrhetinate and indomethacin instead of cryptotanshinone.

Another test concerns Propionibacterium acnes. The test is described as follows: Antibacterial ability against Propionibacterium acnes (MIC on BHI solid flat medium). Particulars: P. acnes, three days. Format: cell-based. An excerpt: To measure the antibacterial ability of cryptotanshinone against Propionibacterium acnes (P. acnes hereinafter), P. acnes kept in a cold storage in original state was cultivated on a BHI (Brain Heart Infusion) solid flat medium three days before the beginning of experiment. On the day of experiment, the P. acnes previously cultivated was inoculated into BHI solid flat medium containing the predetermined concentration of cryptotanshinone. Three days later after that, the minimum inhibition concentration (MIC) is obtained by measuring the number of P. acnes. The experiment was conducted in the same manner as experimental example 5, except for using benzoyl peroxide instead of cryptotanshinone.

The test system of the next test is 5 α-reductase. The test is described as follows: Inhibition of 5 α-reductase (conversion of 3H-testosterone to dihydrotestosterone, HPLC). Format: biochemical. As for the experimental part:
30 l of Phosphate Buffered Saline (PBS/pH 6.6) is mixed with 101 of dithiothreitol, NADPH, and testosterone, into which radioactive isotopes are combined (3H-1, 2, 4, 5, 6, 7-testosterone), 401 of extract liquid of enzyme 5 α-reductase, and 20 l of cryptotanshinone having 0.001% of concentration. Next, the composition mentioned above is left at the normal temperature for 10 minutes so that the materials in the composition react to each other, and then the amount of converted dihydrotestosterone are measured by HPLC and a measuring instrument of radioisotope.
Inhibition rate (%)=[…].
The experiments are conducted in the same manner as experimental example 1, except for changing the concentration of cryptotanshinone as described in Table 1.

`CCCCCCCCCCCCCCCCCCOC(=O)[C@@]1(C)CC[C@]2(C)CC[C@]3(C)C(=CC(=O)[C@@H]4[C@@]5(C)CC[C@H](O)C(C)(C)[C@@H]5CC[C@]43C)[C@@H]2C1` [Stearyl Glycyrrhetinate, stearyl glycyrrhetinate]: in the test on ears of mice, the “Thickness of ear After applying agent” value was 454, the “Thickness of ear Before applying agent” value is recorded as 268 and the Restraint rate is listed as 15.8%.

In the test with Propionibacterium acnes (Cutibacterium acnes, 72 h), `O=C(OOC(=O)c1ccccc1)c1ccccc1` [Benzoyl peroxide, reference compound] came in with an MIC of 500 to 1000 µg/mL (≈ 2.06 to 4.13 mM).

As to `COc1ccc2c(c1)c(CC(=O)O)c(C)n2C(=O)c1ccc(Cl)cc1` [Indomethacin, indomethacin], in the test on ears of mice, the “Thickness of ear After applying agent” value turned out to be 391, the “Thickness of ear Before applying agent” value is reported as 273 and the Restraint rate was 46.6%.

As for Cryptotanshinone, the Inhibition rate came to 19.1% with 5 α-reductase (concentration of cryptotanshinone 0.001%), 36.0% in the test with 5 α-reductase (concentration of cryptotanshinone 0.01%), 45.9% with 5 α-reductase (concentration of cryptotanshinone 0.1%) and 100% in the test on 5 α-reductase (concentration of cryptotanshinone 1.0%). In addition, the “MIC (mole)” value against Propionibacterium acnes is on record as 100-500 ppm. Moreover, the “Thickness of ear After applying agent” value with ears of mice is given as 437. In addition, the “Thickness of ear Before applying agent” value in the test on ears of mice is reported as 271. In the test with ears of mice, the Restraint rate came to 24.9%.
